According to the supplement of paper PMC10307832:

Assays:
Assay in all cases: relative viability (nuclei count vs DMSO), 5 days (fraction); higher = more cells survive
[1] = compound: Cn1cc(-c2cnc3ccc4ccc(CS(=O)(=O)NCc5ccccn5)cc4c(=O)c3c2)cn1 [MK-8033] + O=C(c1cc(Cc2n[nH]c(=O)c3ccccc23)ccc1F)N1CCN(C(=O)C2CC2)CC1 [Olaparib] (partner 8 µM)
In short: (§1)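 Cells from lung cancer lines were seeded into 1536-well plates and, one day later, dosed by pin tool. Treatments were either a single drug or a fixed dose of an anchor drug with five library-drug doses (not always all listed) in √10 steps. After 5 days, nuclei were stained in a one-step fixation (final 0.05% Triton X-100, 1% formaldehyde, 1 ug/ml Hoechst) and counted on 4× images, and relative viability is the treated-to-vehicle nuclei ratio, as the median of duplicate plates.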

[2] = compound: CC[C@@H](C)CNCC(=O)N1CCC2=C([C@@H]1COC3=CC=CC(=C3)C)C=CS2 [RU-SKI 43] + Nc1nc2[nH]cc(CCc3ccc(C(=O)N[C@@H](CCC(=O)O)C(=O)O)cc3)c2c(=O)[nH]1 [Pemetrexed] (partner 0.2 µM)
In short: as §1

[3] = compound: CC[C@@H](C)CNCC(=O)N1CCC2=C([C@@H]1COC3=CC=CC(=C3)C)C=CS2 [RU-SKI 43] + O=C(CCCCCCC(=O)Nc1ccccc1)NO [Vorinostat] (partner 1 µM)
In short: as §1

[4] = compound: Cn1cc(-c2cnc3ccc4ccc(CS(=O)(=O)NCc5ccccn5)cc4c(=O)c3c2)cn1 [MK-8033] + Cc1cc(Nc2cc(N3CCN(C)CC3)nc(Sc3ccc(NC(=O)C4CC4)cc3)n2)n[nH]1 [Tozasertib] (partner 0.1 µM)
In short: as §1

## NCI-H322M
[1]; first compound 0.02 µM
  relative viability: 0.725
[1]; first compound 0.06325 µM
  relative viability: 0.762
[1]; first compound 0.2 µM
  relative viability: 0.733
[1]; first compound 0.6325 µM
  relative viability: 0.782
[1]; first compound 2 µM
  relative viability: 0.739
[2]; first compound 0.1 µM
  relative viability: 0.642
[2]; first compound 0.3162 µM
  relative viability: 0.68
[2]; first compound 1 µM
  relative viability: 0.662
[2]; first compound 3.162 µM
  relative viability: 0.673
[2]; first compound 10 µM
  relative viability: 0.572
[3]; first compound 0.1 µM
  relative viability: 0.83
[3]; first compound 0.3162 µM
  relative viability: 0.925
[3]; first compound 1 µM
  relative viability: 0.911
[3]; first compound 3.162 µM
  relative viability: 0.998
[3]; first compound 10 µM
  relative viability: 0.782
[4]; first compound 0.02 µM
  relative viability: 0.522
[4]; first compound 0.06325 µM
  relative viability: 0.464
[4]; first compound 0.2 µM
  relative viability: 0.427
[4]; first compound 0.6325 µM
  relative viability: 0.449
[4]; first compound 2 µM
  relative viability: 0.44

## NCI-H358
[1]; first compound 0.02 µM
  relative viability: 0.561
[1]; first compound 0.06325 µM
  relative viability: 0.553
[1]; first compound 0.2 µM
  relative viability: 0.577
[1]; first compound 0.6325 µM
  relative viability: 0.715
[1]; first compound 2 µM
  relative viability: 0.57
[2]; first compound 0.1 µM
  relative viability: 0.169
[2]; first compound 0.3162 µM
  relative viability: 0.189
[2]; first compound 1 µM
  relative viability: 0.17
[2]; first compound 3.162 µM
  relative viability: 0.176
[2]; first compound 10 µM
  relative viability: 0.176
[3]; first compound 0.1 µM
  relative viability: 0.642
[3]; first compound 0.3162 µM
  relative viability: 0.929
[3]; first compound 1 µM
  relative viability: 0.708
[3]; first compound 3.162 µM
  relative viability: 0.793
[3]; first compound 10 µM
  relative viability: 0.614
[4]; first compound 0.02 µM
  relative viability: 0.0969
[4]; first compound 0.06325 µM
  relative viability: 0.0932
[4]; first compound 0.2 µM
  relative viability: 0.1
[4]; first compound 0.6325 µM
  relative viability: 0.0977
[4]; first compound 2 µM
  relative viability: 0.106

## NCI-H1648
[1]; first compound 0.02 µM
  relative viability: 0.841
[1]; first compound 0.2 µM
  relative viability: 0.748
[1]; first compound 0.6325 µM
  relative viability: 0.765
[1]; first compound 2 µM
  relative viability: 0.574
[2]; first compound 0.1 µM
  relative viability: 0.682
[2]; first compound 0.3162 µM
  relative viability: 0.861
[2]; first compound 1 µM
  relative viability: 0.531
[2]; first compound 3.162 µM
  relative viability: 0.659
[2]; first compound 10 µM
  relative viability: 0.558
[3]; first compound 0.1 µM
  relative viability: 0.416
[3]; first compound 0.3162 µM
  relative viability: 0.572
[3]; first compound 1 µM
  relative viability: 0.563
[3]; first compound 3.162 µM
  relative viability: 0.51
[3]; first compound 10 µM
  relative viability: 0.754
[4]; first compound 0.06325 µM
  relative viability: 0.404
[4]; first compound 0.2 µM
  relative viability: 0.405
[4]; first compound 2 µM
  relative viability: 0.426

## NCI-H1395
[1]; first compound 0.02 µM
  relative viability: 0.448
[1]; first compound 0.06325 µM
  relative viability: 0.362
[1]; first compound 0.2 µM
  relative viability: 0.463
[1]; first compound 0.6325 µM
  relative viability: 0.469
[1]; first compound 2 µM
  relative viability: 0.462
[2]; first compound 0.1 µM
  relative viability: 0.992
[2]; first compound 0.3162 µM
  relative viability: 0.805
[2]; first compound 1 µM
  relative viability: 1.2
[2]; first compound 3.162 µM
  relative viability: 0.855
[2]; first compound 10 µM
  relative viability: 0.967
[3]; first compound 0.1 µM
  relative viability: 0.844
[3]; first compound 0.3162 µM
  relative viability: 0.602
[3]; first compound 1 µM
  relative viability: 1.07
[3]; first compound 3.162 µM
  relative viability: 0.611
[3]; first compound 10 µM
  relative viability: 0.91
[4]; first compound 0.02 µM
  relative viability: 0.757
[4]; first compound 0.06325 µM
  relative viability: 0.651
[4]; first compound 0.2 µM
  relative viability: 0.735
[4]; first compound 0.6325 µM
  relative viability: 0.76
[4]; first compound 2 µM
  relative viability: 0.707

## NCI-H1993
[1]; first compound 0.02 µM
  relative viability: 0.996
[1]; first compound 0.06325 µM
  relative viability: 1.01
[1]; first compound 0.2 µM
  relative viability: 0.705
[1]; first compound 0.6325 µM
  relative viability: 0.946
[1]; first compound 2 µM
  relative viability: 0.669
[2]; first compound 0.1 µM
  relative viability: 0.59
[2]; first compound 0.3162 µM
  relative viability: 0.625
[2]; first compound 1 µM
  relative viability: 0.558
[2]; first compound 3.162 µM
  relative viability: 0.624
[2]; first compound 10 µM
  relative viability: 0.465
[3]; first compound 0.1 µM
  relative viability: 0.717
[3]; first compound 0.3162 µM
  relative viability: 0.969
[3]; first compound 1 µM
  relative viability: 0.769
[3]; first compound 3.162 µM
  relative viability: 1.08
[3]; first compound 10 µM
  relative viability: 0.659
[4]; first compound 0.02 µM
  relative viability: 0.564
[4]; first compound 0.06325 µM
  relative viability: 0.525
[4]; first compound 0.2 µM
  relative viability: 0.561
[4]; first compound 0.6325 µM
  relative viability: 0.525
[4]; first compound 2 µM
  relative viability: 0.583

## CAL-12T
[1]; first compound 0.02 µM
  relative viability: 0.61
[1]; first compound 0.06325 µM
  relative viability: 0.692
[1]; first compound 0.2 µM
  relative viability: 0.71
[1]; first compound 0.6325 µM
  relative viability: 0.718
[1]; first compound 2 µM
  relative viability: 0.756
[2]; first compound 0.1 µM
  relative viability: 1.16
[2]; first compound 0.3162 µM
  relative viability: 1.36
[2]; first compound 1 µM
  relative viability: 1.39
[2]; first compound 3.162 µM
  relative viability: 1.2
[2]; first compound 10 µM
  relative viability: 1.22
[3]; first compound 0.1 µM
  relative viability: 0.77
[3]; first compound 0.3162 µM
  relative viability: 0.89
[3]; first compound 1 µM
  relative viability: 0.909
[3]; first compound 3.162 µM
  relative viability: 0.699
[3]; first compound 10 µM
  relative viability: 0.692
[4]; first compound 0.02 µM
  relative viability: 0.317
[4]; first compound 0.06325 µM
  relative viability: 0.29
[4]; first compound 0.2 µM
  relative viability: 0.28
[4]; first compound 0.6325 µM
  relative viability: 0.311
[4]; first compound 2 µM
  relative viability: 0.266

## NCI-H1299
[1]; first compound 0.02 µM
  relative viability: 1.01
[1]; first compound 0.06325 µM
  relative viability: 0.967
[1]; first compound 0.2 µM
  relative viability: 0.927
[1]; first compound 0.6325 µM
  relative viability: 1
[1]; first compound 2 µM
  relative viability: 0.982

## NCI-H1703
[1]; first compound 0.02 µM
  relative viability: 0.385
[1]; first compound 0.06325 µM
  relative viability: 0.304
[1]; first compound 0.2 µM
  relative viability: 0.524
[1]; first compound 0.6325 µM
  relative viability: 0.336
[1]; first compound 2 µM
  relative viability: 0.598

## NCI-H1792
[1]; first compound 0.02 µM
  relative viability: 0.451
[1]; first compound 0.06325 µM
  relative viability: 0.448
[1]; first compound 0.2 µM
  relative viability: 0.337
[1]; first compound 0.6325 µM
  relative viability: 0.351
[1]; first compound 2 µM
  relative viability: 0.3
[2]; first compound 0.1 µM
  relative viability: 0.734
[2]; first compound 0.3162 µM
  relative viability: 1.04
[2]; first compound 1 µM
  relative viability: 1.24
[2]; first compound 3.162 µM
  relative viability: 0.77
[2]; first compound 10 µM
  relative viability: 0.842

## NCI-H727
[1]; first compound 0.02 µM
  relative viability: 0.679
[1]; first compound 0.06325 µM
  relative viability: 0.603
[1]; first compound 0.2 µM
  relative viability: 0.337
[1]; first compound 0.6325 µM
  relative viability: 0.702
[1]; first compound 2 µM
  relative viability: 0.808
[3]; first compound 0.3162 µM
  relative viability: 1.13
[3]; first compound 1 µM
  relative viability: 1.13
[3]; first compound 3.162 µM
  relative viability: 1.08
[3]; first compound 10 µM
  relative viability: 1.23
[4]; first compound 0.02 µM
  relative viability: 0.577
[4]; first compound 0.2 µM
  relative viability: 0.714
[4]; first compound 0.6325 µM
  relative viability: 0.465
[4]; first compound 2 µM
  relative viability: 0.61

## ABC-1
[1]; first compound 0.02 µM
  relative viability: 1.07
[1]; first compound 0.06325 µM
  relative viability: 0.746
[1]; first compound 0.2 µM
  relative viability: 0.838
[1]; first compound 0.6325 µM
  relative viability: 0.939
[1]; first compound 2 µM
  relative viability: 0.898
[3]; first compound 0.1 µM
  relative viability: 0.964
[3]; first compound 0.3162 µM
  relative viability: 1.08
[3]; first compound 1 µM
  relative viability: 1.27
[3]; first compound 3.162 µM
  relative viability: 1.01
[3]; first compound 10 µM
  relative viability: 1.16
[4]; first compound 0.02 µM
  relative viability: 0.207
[4]; first compound 0.06325 µM
  relative viability: 0.123
[4]; first compound 0.2 µM
  relative viability: 0.155
[4]; first compound 0.6325 µM
  relative viability: 0.174
[4]; first compound 2 µM
  relative viability: 0.154

## Calu-6
[1]; first compound 0.02 µM
  relative viability: 0.601
[1]; first compound 0.06325 µM
  relative viability: 0.559
[1]; first compound 0.2 µM
  relative viability: 0.553
[1]; first compound 0.6325 µM
  relative viability: 0.582
[1]; first compound 2 µM
  relative viability: 0.548
